Non-standard residues stand in square brackets, D forms with d. Residues, ends and D or L forms follow the SMILES beside them. Aha = [N-]=[N+]=NCC[C@H](N)C(=O)O
Assay: Water solubility of hydrophobic peptide and its linker cleavage fragments
Assay type: physicochemical
Description: In order to enhance solubility of this peptide a variant was prepared in which a cleavable N-terminal poly-lysine tag was synthesized after the peptide sequence and incorporated cleavable linker 1: H-KKKKK—(linker 1) AhaGISFSIRFAIWIRFG-NH2 (10) (SEQ. ID. No: 3). Synthesis and purification of this modified peptide proceeded smoothly according to example 3 (FIG. 2B). Pure peptide 10 was dissolved in a 0.05 M aqueous NaHCO3 solution and shaken for 2 h at r.t. (FIG. 2A). The cleavage reaction released the two peptides 11 and 12: While the poly-lysine tag 11 is water soluble, peptide 12 precipitated under the reaction conditions and could be easily isolated in high purity by centrifugation. • FIG. 2B: LC-MS of H-KKKKK (linker 1)-AhaGISFSIRFAIWIRFG-NH2 (10), MS (ESI): 545.4 [M+5H]^5+, 681.6 [M+4H]^4+, 908.3 [M+3H]^3+, 1362.0 [M+2H]^2+. • FIG. 2C: MS (ESI) of insoluble peptide 12 (MS (ESI): 661.5 [M+3H]^3+, 991.3 [M+2H]^2+, 1322.0 […], 1983.1 [M+H]^+).

solubility in water: insoluble in water
Structure (SMILES): CC[C@H](C)[C@H](NC(=O)CNC(=O)[C@@H](N)CCN=[N+]=[N-])C(=O)N[C@@H](CO)C(=O)N[C@@H](Cc1ccccc1)C(=O)N[C@@H](CO)C(=O)N[C@H](C(=O)N[C@@H](CCCNC(=N)N)C(=O)N[C@@H](Cc1ccccc1)C(=O)N[C@@H](C)C(=O)N[C@H](C(=O)N[C@@H](Cc1c[nH]c2ccccc12)C(=O)N[C@H](C(=O)N[C@@H](CCCNC(=N)N)C(=O)N[C@@H](Cc1ccccc1)C(=O)NCC(N)=O)[C@@H](C)CC)[C@@H](C)CC)[C@@H](C)CC [H-AhaGISFSIRFAIWIRFG-NH2] (H-[Aha]GISFSIRFAIWIRFG-NH2)
